Here are results for 24 compounds from ChEMBL document CHEMBL2069251, “Synthesis and antifungal activity of 1-thia-4b-aza-cyclopenta[b]fluorene-4,10-diones” (2012).

≈ marks a conversion by molar mass, not a printed value.

Common to all, as to assay type: functional
One experiment deals with Candida albicans. Briefly: Antifungal activity against Candida albicans Berkout KCCM 50235 after 1 day by twofold broth dilution method. The settings on record: Berkout KCCM 50235, 24 h. (In broth dilution the organism is exposed to a series of concentrations in liquid medium.)
Another experiment has as its system Candida tropicalis. Description: Antifungal activity against Candida tropicalis Berkout KCCM 50662 after 1 day by twofold broth dilution method. The settings on record: Berkout KCCM 50662, 24 h.
Another experiment deals with Pichia kudriavzevii. Briefly: Antifungal activity against Candida krusei Berkout KCCM 11655 after 1 day by twofold broth dilution method. The settings on record: Berkout KCCM 11655, 24 h.
The subject of the next experiment is Cryptococcus neoformans. Briefly: Antifungal activity against Cryptococcus neoformans KCCM 50564 after 1 day by twofold broth dilution method. The settings on record: KCCM 50564, 24 h.
A further experiment deals with Aspergillus niger. Briefly: Antifungal activity against Aspergillus niger KCTC 1231 after 2 days by twofold broth dilution method. The settings on record: KCTC 1231, 48 h.
In the next experiment the test system is Aspergillus flavus. Description: Antifungal activity against Aspergillus flavus KCCM 11899 after 2 days by twofold broth dilution method. The settings on record: KCCM 11899, 48 h.

Take `Nc1nc(=O)[nH]cc1F` [FLUCYTOSINE]: the minimum inhibitory concentration (MIC) amounted to 3.2 µg/mL (≈ 24.8 µM) in the experiment with Candida albicans; 6.3 µg/mL (≈ 48.8 µM) in the experiment on Candida tropicalis; 6.3 µg/mL (≈ 48.8 µM) in the experiment with Pichia kudriavzevii; 6.3 µg/mL (≈ 48.8 µM) in the experiment on Cryptococcus neoformans; 6.3 µg/mL (≈ 48.8 µM) against Aspergillus niger; 25 µg/mL (≈ 194 µM) with Aspergillus flavus.

For the compound `COC(=O)c1cc2c(s1)C(=O)c1c(C(C)=O)c3ccc(C)cn3c1C2=O`, the MIC was 12.5 µg/mL (≈ 34 µM) in the experiment on Candida albicans; 25 µg/mL (≈ 68 µM) against Candida tropicalis; 50 µg/mL (≈ 136 µM) with Pichia kudriavzevii; 12.5 µg/mL (≈ 34 µM) in the experiment with Cryptococcus neoformans; 6.3 µg/mL (≈ 17.1 µM) against Aspergillus niger; 12.5 µg/mL (≈ 34 µM) in the experiment with Aspergillus flavus.

Consider `CCOC(=O)c1c2c(n3cc(C)ccc13)C(=O)c1cc(C(=O)OC)sc1C2=O`, for which the MIC in the experiment with Candida albicans is 25 µg/mL (≈ 62.9 µM); against Candida tropicalis, 12.5 µg/mL (≈ 31.5 µM); against Pichia kudriavzevii, 25 µg/mL (≈ 62.9 µM); against Cryptococcus neoformans it was 12.5 µg/mL (≈ 31.5 µM); against Aspergillus niger it was 25 µg/mL (≈ 62.9 µM); in the experiment with Aspergillus flavus, 6.3 µg/mL (≈ 15.9 µM).

With `COC(=O)c1cc2c(s1)C(=O)c1c(C(=O)OC)c3ccccn3c1C2=O`, the MIC was 50 µg/mL (≈ 135 µM) in the experiment on Candida albicans; 25 µg/mL (≈ 67.7 µM) against Candida tropicalis; 50 µg/mL (≈ 135 µM) with Pichia kudriavzevii; 12.5 µg/mL (≈ 33.8 µM) in the experiment with Cryptococcus neoformans; 25 µg/mL (≈ 67.7 µM) with Aspergillus niger; 12.5 µg/mL (≈ 33.8 µM) in the experiment with Aspergillus flavus.

On to `COC(=O)c1cc2c(s1)C(=O)C(Cl)=C([n+]1ccc(OC)cc1)C2=O.[Cl-]`, for which the MIC against Candida albicans is 100 µg/mL; against Candida tropicalis, 50 µg/mL; with Pichia kudriavzevii, 50 µg/mL; in the experiment with Cryptococcus neoformans, 50 µg/mL; in the experiment with Aspergillus niger, 100 µg/mL; in the experiment on Aspergillus flavus, 50 µg/mL.

As for `CCOC(=O)c1c2c(n3cc(Cl)ccc13)C(=O)c1cc(C(=O)OC)sc1C2=O`, the MIC against Candida albicans is 6.3 µg/mL (≈ 15.1 µM); with Candida tropicalis, 6.3 µg/mL (≈ 15.1 µM); in the experiment with Pichia kudriavzevii, 6.3 µg/mL (≈ 15.1 µM); against Cryptococcus neoformans, 25 µg/mL (≈ 59.8 µM); in the experiment on Aspergillus niger it was 6.3 µg/mL (≈ 15.1 µM); with Aspergillus flavus, 25 µg/mL (≈ 59.8 µM).

Turning to `COC(=O)c1cc2c(s1)C(=O)c1c(C(C)=O)c3ccc(Br)cn3c1C2=O`, the minimum inhibitory concentration (MIC) with Candida albicans stood at 6.3 µg/mL (≈ 14.6 µM); against Candida tropicalis, 12.5 µg/mL (≈ 28.9 µM); in the experiment on Pichia kudriavzevii, 6.3 µg/mL (≈ 14.6 µM); against Cryptococcus neoformans, 1.6 µg/mL (≈ 3.7 µM); with Aspergillus niger, 6.3 µg/mL (≈ 14.6 µM); in the experiment on Aspergillus flavus, 12.5 µg/mL (≈ 28.9 µM).

Consider `COC(=O)c1cc2c(s1)C(=O)c1c(C(C)=O)c3cc(Cl)ccn3c1C2=O`, for which the MIC turned out to be 50 µg/mL (≈ 129 µM) against Candida albicans; 25 µg/mL (≈ 64.5 µM) in the experiment with Candida tropicalis; 50 µg/mL (≈ 129 µM) in the experiment with Pichia kudriavzevii; 12.5 µg/mL (≈ 32.2 µM) against Cryptococcus neoformans; 6.3 µg/mL (≈ 16.2 µM) against Aspergillus niger; 12.5 µg/mL (≈ 32.2 µM) in the experiment with Aspergillus flavus.

On to `OC(Cn1cncn1)(Cn1cncn1)c1ccc(F)cc1F` [FLUCONAZOLE], for which the minimal inhibitory concentration (MIC) against Candida albicans stood at 50 µg/mL (≈ 163 µM); against Candida tropicalis, 3.2 µg/mL (≈ 10.4 µM); against Pichia kudriavzevii it was 25 µg/mL (≈ 81.6 µM); against Cryptococcus neoformans it was 6.3 µg/mL (≈ 20.6 µM); against Aspergillus niger, 6.3 µg/mL (≈ 20.6 µM); with Aspergillus flavus, 25 µg/mL (≈ 81.6 µM).

Turning to `COC(=O)c1cc2c(s1)C(=O)c1c(C(C)=O)c3ccc(Cl)cn3c1C2=O`, the MIC in the experiment on Candida albicans came to 12.5 µg/mL (≈ 32.2 µM); in the experiment with Candida tropicalis, 3.2 µg/mL (≈ 8.25 µM); against Pichia kudriavzevii, 6.3 µg/mL (≈ 16.2 µM); against Cryptococcus neoformans, 3.2 µg/mL (≈ 8.25 µM); against Aspergillus niger, 12.5 µg/mL (≈ 32.2 µM); in the experiment with Aspergillus flavus, 25 µg/mL (≈ 64.5 µM).

Take `COC(=O)c1cc2c(s1)C(=O)c1c(C(C)=O)c3cc(C#N)ccn3c1C2=O`: the minimal inhibitory concentration (MIC) in the experiment with Candida albicans was determined as 25 µg/mL (≈ 66.1 µM); with Candida tropicalis it was 25 µg/mL (≈ 66.1 µM); against Pichia kudriavzevii, 25 µg/mL (≈ 66.1 µM); in the experiment with Cryptococcus neoformans, 6.3 µg/mL (≈ 16.7 µM); against Aspergillus niger it was 12.5 µg/mL (≈ 33 µM); with Aspergillus flavus it was 12.5 µg/mL (≈ 33 µM).

For `COC(=O)c1cc2c(OC)ccc(OC)c2s1`, the MIC is 100 µg/mL (≈ 396 µM) in the experiment with Candida albicans; greater than 100 µg/mL in the experiment with Candida tropicalis; 50 µg/mL (≈ 198 µM) against Pichia kudriavzevii; greater than 100 µg/mL with Cryptococcus neoformans; 100 µg/mL (≈ 396 µM) in the experiment on Aspergillus niger; 100 µg/mL (≈ 396 µM) in the experiment with Aspergillus flavus.

With `CCOC(=O)c1c2c(n3cc(Br)ccc13)C(=O)c1cc(C(=O)OC)sc1C2=O`, the minimal inhibitory concentration (MIC) in the experiment with Candida albicans worked out at 3.2 µg/mL (≈ 6.92 µM); against Candida tropicalis, 1.6 µg/mL (≈ 3.46 µM); with Pichia kudriavzevii it was 12.5 µg/mL (≈ 27 µM); with Cryptococcus neoformans, 1.6 µg/mL (≈ 3.46 µM); with Aspergillus niger it was 3.2 µg/mL (≈ 6.92 µM); with Aspergillus flavus it was 1.6 µg/mL (≈ 3.46 µM).

For `CCOC(=O)c1c2c(n3cc(F)ccc13)C(=O)c1cc(C(=O)OC)sc1C2=O`, the minimum inhibitory concentration (MIC) with Candida albicans stood at 6.3 µg/mL (≈ 15.7 µM); in the experiment on Candida tropicalis, 50 µg/mL (≈ 125 µM); against Pichia kudriavzevii, 12.5 µg/mL (≈ 31.1 µM); in the experiment with Cryptococcus neoformans, 12.5 µg/mL (≈ 31.1 µM); against Aspergillus niger, 50 µg/mL (≈ 125 µM); in the experiment with Aspergillus flavus, 12.5 µg/mL (≈ 31.1 µM).

Turning to `CCOC(=O)c1c2c(n3ccccc13)C(=O)c1cc(C(=O)OC)sc1C2=O`, the minimum inhibitory concentration (MIC) came out at 50 µg/mL (≈ 130 µM) against Candida albicans; 12.5 µg/mL (≈ 32.6 µM) against Candida tropicalis; 12.5 µg/mL (≈ 32.6 µM) with Pichia kudriavzevii; 50 µg/mL (≈ 130 µM) in the experiment on Cryptococcus neoformans; 12.5 µg/mL (≈ 32.6 µM) against Aspergillus niger; 50 µg/mL (≈ 130 µM) in the experiment on Aspergillus flavus.

Take `COC(=O)c1cc2c(s1)C(=O)C(Cl)=C([n+]1cccc(Br)c1)C2=O.[Cl-]`: the MIC against Candida albicans turned out to be 50 µg/mL; against Candida tropicalis, 50 µg/mL; against Pichia kudriavzevii, 25 µg/mL; in the experiment on Cryptococcus neoformans, 50 µg/mL; against Aspergillus niger, 12.5 µg/mL; in the experiment with Aspergillus flavus, 50 µg/mL.

As to `COC(=O)c1cc2c(s1)C(=O)C(Cl)=C([n+]1ccc(C#N)cc1)C2=O.[Cl-]`, the MIC turned out to be 25 µg/mL in the experiment with Candida albicans; 50 µg/mL against Candida tropicalis; 50 µg/mL in the experiment with Pichia kudriavzevii; 6.3 µg/mL with Cryptococcus neoformans; 3.2 µg/mL against Aspergillus niger; 6.3 µg/mL in the experiment on Aspergillus flavus.

On to `COC(=O)c1cc2c(s1)C(=O)C(Cl)=C([n+]1cccc(Cl)c1)C2=O.[Cl-]`, for which the MIC in the experiment with Candida albicans worked out at 3.2 µg/mL; against Candida tropicalis it was 1.6 µg/mL; with Pichia kudriavzevii it was 3.2 µg/mL; against Cryptococcus neoformans it was 50 µg/mL; in the experiment on Aspergillus niger, 3.2 µg/mL; against Aspergillus flavus, 3.2 µg/mL.

Regarding `CCOC(=O)c1c2c(n3ccc(C#N)cc13)C(=O)c1cc(C(=O)OC)sc1C2=O`, the MIC in the experiment on Candida albicans worked out at 12.5 µg/mL (≈ 30.6 µM); against Candida tropicalis, 12.5 µg/mL (≈ 30.6 µM); against Pichia kudriavzevii it was 50 µg/mL (≈ 122 µM); in the experiment with Cryptococcus neoformans, 25 µg/mL (≈ 61.2 µM); against Aspergillus niger it was 3.2 µg/mL (≈ 7.84 µM); against Aspergillus flavus, 50 µg/mL (≈ 122 µM).

In the case of `CCc1ccc2c(C(C)=O)c3c(n2c1)C(=O)c1cc(C(=O)OC)sc1C3=O`, the minimum inhibitory concentration (MIC) with Candida albicans was determined as 12.5 µg/mL (≈ 32.8 µM); against Candida tropicalis, 50 µg/mL (≈ 131 µM); in the experiment on Pichia kudriavzevii it was 50 µg/mL (≈ 131 µM); against Cryptococcus neoformans it was 6.3 µg/mL (≈ 16.5 µM); with Aspergillus niger it was 12.5 µg/mL (≈ 32.8 µM); against Aspergillus flavus, 6.3 µg/mL (≈ 16.5 µM).

In the case of `CCc1ccc[n+](C2=C(Cl)C(=O)c3sc(C(=O)OC)cc3C2=O)c1.[Cl-]`, the MIC in the experiment on Candida albicans worked out at 50 µg/mL; in the experiment on Candida tropicalis it was 25 µg/mL; in the experiment with Pichia kudriavzevii it was 50 µg/mL; against Cryptococcus neoformans, 12.5 µg/mL; against Aspergillus niger it was 6.3 µg/mL; against Aspergillus flavus, 12.5 µg/mL.

As to `COC(=O)c1cc2c(s1)C(=O)c1c(C(C)=O)c3ccc(F)cn3c1C2=O`, the MIC against Candida albicans worked out at 50 µg/mL (≈ 135 µM); against Candida tropicalis, 25 µg/mL (≈ 67.3 µM); with Pichia kudriavzevii, 25 µg/mL (≈ 67.3 µM); against Cryptococcus neoformans, 50 µg/mL (≈ 135 µM); against Aspergillus niger, 50 µg/mL (≈ 135 µM); in the experiment on Aspergillus flavus, 50 µg/mL (≈ 135 µM).

For the compound `CCOC(=O)c1c2c(n3ccc(OC)cc13)C(=O)c1cc(C(=O)OC)sc1C2=O`, the MIC in the experiment on Candida albicans is 50 µg/mL (≈ 121 µM); in the experiment on Candida tropicalis, 50 µg/mL (≈ 121 µM); in the experiment with Pichia kudriavzevii, 100 µg/mL (≈ 242 µM); with Cryptococcus neoformans it was 50 µg/mL (≈ 121 µM); against Aspergillus niger, 100 µg/mL (≈ 242 µM); against Aspergillus flavus, 50 µg/mL (≈ 121 µM).

On to `COC(=O)c1cc2c(s1)C(=O)C(Cl)=C([n+]1ccc(Cl)cc1)C2=O.[Cl-]`, for which the MIC against Candida albicans worked out at 12.5 µg/mL; in the experiment with Candida tropicalis it was 25 µg/mL; with Pichia kudriavzevii, 50 µg/mL; in the experiment with Cryptococcus neoformans, 12.5 µg/mL; with Aspergillus niger it was 3.2 µg/mL; in the experiment with Aspergillus flavus, 12.5 µg/mL.

What is called MIC is the lowest concentration that inhibits growth of the organism. Read a low MIC as inhibition by little substance.
